According to PubChem BioAssay (NCI):
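Exposure lasted 48 hours, with cells grown in 96-well plates and compounds tested at five concentrations. GI50 = concentration required for 50% inhibition of growth. TGI marks complete inhibition of growth.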

Key:
Experiment in all cases: DTP human tumour cell line panel, 48 h
[1] = tested on: SF-295 CNS
[2] = tested on: SNB-75 CNS
[3] = tested on: TK-10 renal
[4] = tested on: 786-0 renal
[5] = tested on: NCI-H226 lung
[6] = tested on: CCRF-CEM leukemia
[7] = tested on: SF-539 CNS
[8] = tested on: SK-MEL-28 melanoma
[9] = tested on: NCI-H522 lung
[10] = tested on: OVCAR-8 ovarian
[11] = tested on: HCT-15 colon
[12] = tested on: K-562 leukemia
[13] = tested on: IGROV1 ovarian
[14] = tested on: PC-3 prostate
[15] = tested on: BT-549 breast
[16] = tested on: HOP-62 NSCLC
[17] = tested on: UACC-62 melanoma
[18] = tested on: A498 renal
[19] = tested on: MALME-3M melanoma
[20] = tested on: EKVX NSCLC
[21] = tested on: NCI-H460 lung
[22] = tested on: OVCAR-4 ovarian
[23] = tested on: KM12 colon
[24] = tested on: NCI/ADR-RES ovarian
[25] = tested on: DU-145 prostate
[26] = tested on: SK-MEL-2 melanoma
[27] = tested on: MDA-MB-435
[28] = tested on: U251 CNS
[29] = tested on: HOP-92 NSCLC
[30] = tested on: SR leukemia
[31] = tested on: SK-OV-3 ovarian
[32] = tested on: A549 NSCLC
[33] = tested on: HT29 colon
[34] = tested on: UACC-257 melanoma
[35] = tested on: LOX IMVI melanoma
[36] = tested on: HL-60(TB) leukemia
[37] = tested on: SW-620 colon
[38] = tested on: CAKI-1 renal
[39] = tested on: OVCAR-5 ovarian
[40] = tested on: NCI-H23 lung
[41] = tested on: COLO 205 colon
[42] = tested on: ACHN renal
[43] = tested on: OVCAR-3 ovarian
[44] = tested on: MDA-MB-231 breast
[45] = tested on: SN12C renal
[46] = tested on: SNB-19 CNS
[47] = tested on: SK-MEL-5 melanoma
[48] = tested on: HCC-2998 colon
[49] = tested on: M14 melanoma
[50] = tested on: T-47D breast
[51] = tested on: MOLT-4 leukemia
[52] = tested on: MCF7 breast
[53] = tested on: SF-268 CNS
[54] = tested on: UO-31 renal

## CN1CCN(c2ccc(Nc3nc(NCCCNS(=O)(=O)c4ccc(C(F)(F)F)cc4)c4sccc4n3)cc2)CC1
[1]
  GI50: 1.81 µM
  TGI: 3.51 µM
[2]
  GI50: 14.5 µM
  TGI: 28 µM
[3]
  GI50: 2.78 µM
  TGI: 8.39 µM
[4]
  GI50: 1.93 µM
  TGI: 3.79 µM
[5]
  GI50: 9.09 µM
  TGI: 35 µM
[6]
  GI50: 3.42 µM
  TGI: 17 µM
[7]
  GI50: 1.68 µM
  TGI: 3.05 µM
[8]
  GI50: 1.63 µM
  TGI: 3.02 µM
[9]
  GI50: 1.77 µM
  TGI: 3.7 µM
[10]
  GI50: 3.58 µM
  TGI: 21.8 µM
[11]
  GI50: 1.58 µM
  TGI: 3.08 µM
[12]
  GI50: 1.84 µM
  TGI: 5.52 µM
[13]
  GI50: 2.38 µM
  TGI: 6.9 µM
[14]
  GI50: 4.27 µM
  TGI: 20.2 µM
[15]
  GI50: 1.86 µM
  TGI: 3.68 µM
[16]
  GI50: 2.6 µM
  TGI: 7.74 µM
[17]
  GI50: 1.68 µM
  TGI: 3.11 µM
[18]
  GI50: 2.16 µM
  TGI: 3.99 µM
[19]
  GI50: 1.72 µM
  TGI: 3.13 µM
[20]
  GI50: 3.73 µM
  TGI: 14.6 µM
[21]
  GI50: 2.28 µM
  TGI: 4.75 µM
[22]
  GI50: 2.62 µM
  TGI: 8.12 µM
[23]
  GI50: 4.3 µM
  TGI: 20.9 µM
[24]
  GI50: 3.17 µM
  TGI: 11.2 µM
[25]
  GI50: 5.11 µM
  TGI: 16.8 µM
[26]
  GI50: 1.78 µM
  TGI: 3.46 µM
[27]
  GI50: 1.79 µM
  TGI: 3.24 µM
[28]
  GI50: 2.62 µM
  TGI: 7.06 µM
[29]
  GI50: 1.91 µM
  TGI: 6.29 µM
[30]
  GI50: 2.06 µM
  TGI: 6.39 µM
[31]
  GI50: 12.7 µM
  TGI: 27.4 µM
[32]
  GI50: 3.71 µM
  TGI: 21.5 µM
[33]
  GI50: 2.11 µM
  TGI: 4.89 µM
[34]
  GI50: 1.92 µM
  TGI: 3.77 µM
[35]
  GI50: 1.64 µM
  TGI: 3.02 µM
[36]
  GI50: 1.78 µM
  TGI: 3.87 µM
[37]
  GI50: 1.89 µM
  TGI: 3.58 µM
[38]
  GI50: 3.05 µM
  TGI: 11.3 µM
[39]
  GI50: 3.26 µM
  TGI: 13.4 µM
[40]
  GI50: 3.41 µM
  TGI: 11.5 µM
[41]
  GI50: 2.09 µM
  TGI: 4.12 µM
[42]
  GI50: 2.69 µM
  TGI: 7.44 µM
[43]
  GI50: 2.74 µM
  TGI: 6.89 µM
[44]
  GI50: 1.88 µM
  TGI: 3.51 µM
[45]
  GI50: 2.22 µM
  TGI: 6.02 µM
[46]
  GI50: 3.6 µM
  TGI: 12.9 µM
[47]
  GI50: 1.78 µM
  TGI: 3.2 µM
[48]
  GI50: 1.98 µM
  TGI: 3.98 µM
[49]
  GI50: 1.89 µM
  TGI: 3.59 µM
[50]
  GI50: 1.89 µM
  TGI: 4.09 µM
[51]
  GI50: 2.13 µM
  TGI: 7.32 µM
[52]
  GI50: 1.74 µM
  TGI: 3.32 µM
[53]
  GI50: 2.39 µM
  TGI: 9.5 µM
[54]
  GI50: 1.69 µM
  TGI: 3.68 µM
